Laboratory results from the NIST ThermoML archive (doi:10.1016/j.fluid.2015.07.055).
± gives the expanded uncertainty stated by the source.

Assays:
[1] = Crystal; DTA
[2] = Molar enthalpy of transition or fusion; details: Crystal; DSC

SMILES: CCC(C)(C)C(=O)O[C@H]1C[C@@H](C)C=C2C=C[C@H](C)[C@H](CC[C@@H]3C[C@@H](O)CC(=O)O3)[C@H]21 [(+)-Simvastatin]
- Normal melting temperature [1]: 142.0 ± 1.1 °C
- Molar enthalpy of transition or fusion [2]: 7.2 ± 0.335 kcal/mol
